Consider 19 molecules from patent publication US5159081A, “Intermediates of peripherally selective N-carbonyl-3,4,4-trisubstituted piperidine opioid antagonists” (Eli Lilly and Company, priority 1991, dated 1992).

One experiment addresses T1, opioid receptor (Mus musculus, UniProt P42866).
T1 construct: Five CF-1 male mice (Charles River, Portage, MI); from tissue; host or cells: living CF-1 male mice (whole animal, endogenous receptor)
Description: in vivo. Further details: species or system CF-1 male mice. The settings on record: sc; mouse writhing test; […]; s.c. 20 min before acetic acid; read-out: AD50 (the source's name). Background: In writhing tests, fewer writhes than in controls are read as antinociception.

The target of experiment [1] is peripheral opioid receptors (Mus musculus, UniProt P42866). Description: mouse diarrhea test: precipitated diarrhea in morphine-maintained mice (peripheral opioid activity). In kind it is in vivo. The settings on record: mouse diarrhea test, morphine-maintained mice, subcutaneous or oral, 30 min observation.
peripheral opioid receptors (Mus musculus, UniProt P42866), sequence (P42866 whole entry): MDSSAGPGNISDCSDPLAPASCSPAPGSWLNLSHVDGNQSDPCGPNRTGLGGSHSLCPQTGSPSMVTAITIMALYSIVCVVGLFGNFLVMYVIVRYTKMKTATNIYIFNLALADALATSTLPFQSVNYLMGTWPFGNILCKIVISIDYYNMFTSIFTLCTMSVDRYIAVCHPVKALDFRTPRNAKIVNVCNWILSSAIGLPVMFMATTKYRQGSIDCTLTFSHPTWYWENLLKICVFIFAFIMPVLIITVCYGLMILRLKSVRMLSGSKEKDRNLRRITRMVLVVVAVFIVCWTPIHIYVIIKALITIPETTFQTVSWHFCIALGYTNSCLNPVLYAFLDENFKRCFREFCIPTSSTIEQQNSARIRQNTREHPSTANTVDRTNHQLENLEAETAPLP
For experiment [2], the system named is peripheral opioid receptors. Described as above. In kind it is in vivo. As to conditions: AD50 mouse writhing / ED50 mouse diarrhea; higher = greater relative peripheral antagonism.
The target of another experiment is T2, mu receptor (Rattus norvegicus, UniProt P33535).
T2 construct: The brain tissue, rat whole brain minus cerebellum for mu was homogenized; from tissue; host or cells: brain minus cerebellum of male Sprague Dawley rats, homogenate fraction
T2 sequence (P33535 whole entry): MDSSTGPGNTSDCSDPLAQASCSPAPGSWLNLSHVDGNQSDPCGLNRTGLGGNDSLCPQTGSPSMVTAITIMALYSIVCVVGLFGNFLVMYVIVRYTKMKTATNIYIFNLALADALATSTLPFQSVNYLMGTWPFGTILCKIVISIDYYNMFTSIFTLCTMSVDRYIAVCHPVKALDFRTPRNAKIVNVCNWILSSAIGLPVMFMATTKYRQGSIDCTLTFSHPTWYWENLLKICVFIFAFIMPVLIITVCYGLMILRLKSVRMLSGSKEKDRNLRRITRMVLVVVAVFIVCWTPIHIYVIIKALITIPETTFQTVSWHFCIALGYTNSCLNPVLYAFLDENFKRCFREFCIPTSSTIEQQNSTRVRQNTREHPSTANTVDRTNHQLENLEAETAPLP
Description: Naloxone [3H] opioid receptor binding assay (mu receptor). As to conditions: 20 min; for Ki: rat whole brain minus cerebellum, pH 7.4, 37° C., read-out: Ki. Further details: species or system rat (male Sprague Dawley).

Setting [3] is: pH 7.4, read-out: % displacement at 10 nM.
Where [4] appears, read: pH 7.4, read-out: % displacement at 100 nM.
[5] abbreviates: pH 7.4, 10 nM test compound, [3H]naloxone 0.5 nM, mu receptor, read-out: % displacement at 10 nM.
[6] abbreviates: pH 7.4, 100 nM test compound, [3H]naloxone 0.5 nM, mu receptor, read-out: % displacement at 100 nM.

Each structure is given as a SMILES string. Read-outs that look alike come from different tables or passages of the source.

T1 sequence (P42866 whole entry): as the sequence (P42866 whole entry) above

As to `C[C@@H]1CN(C[C@@H](CC2CCCCC2)NC(=O)CCCC(=O)O)CC[C@]1(C)c1cccc(O)c1` [Example 48D], the ED50 is more than 40 mg/kg on opioid receptor and 0.05 mg/kg in experiment [1]. The “Ratio (ratio of AD50 to ED50)” value in experiment [2] is more than 800. At mu receptor (setting [3]), the inhibition at 0.01 µM came out at 30%. Also, the inhibition at 0.1 µM on mu receptor (setting [4]) was found to be 78%.

In the case of `COC(=O)CCCC(=O)N[C@@H](CC1CCCCC1)CN1CC[C@@](C)(c2cccc(O)c2)[C@@H](C)C1` [Example 50], the values for the ED50 (on opioid receptor; in experiment [1]) were 20 mg/kg and 0.056 mg/kg, respectively. Also, the “Ratio (ratio of AD50 to ED50)” value in experiment [2] stood at 357. The inhibition at 0.01 µM at mu receptor (setting [3]) was found to be 87%. Further, at mu receptor (setting [4]), the inhibition at 0.1 µM was determined as 99%. Besides, the Ki (usually the dissociation constant of the complex between target and ligand, obtained from inhibition or displacement) on mu receptor ([3H]naloxone 0.5 nM) is 3.24 nM.

In the case of `CCOC(=O)CCCC(=O)N[C@@H](CC1CCCCC1)CN1CC[C@@](C)(c2cccc(O)c2)[C@@H](C)C1` [Example 52], the values for the ED50 (at opioid receptor; in experiment [1]) were 28 mg/kg and 0.02 mg/kg, respectively. Further, in experiment [2], the “Ratio (ratio of AD50 to ED50)” value is 1400. The inhibition at 0.01 µM at mu receptor (setting [3]) was determined as 87%. At mu receptor (setting [4]), the inhibition at 0.1 µM is 96%. Also, on mu receptor ([3H]naloxone 0.5 nM), the Ki is 2.34 nM.

Consider `CCCOC(=O)CCCC(=O)N[C@@H](CC1CCCCC1)CN1CC[C@](C)(c2cccc(O)c2)[C@H](C)C1` [Example 53], for which the values for the ED50 (at opioid receptor; in experiment [1]) were more than 40 mg/kg and 1.06 mg/kg, respectively. The “Ratio (ratio of AD50 to ED50)” value in experiment [2] is given as more than 38. For the same molecule, on mu receptor (setting [3]), the inhibition at 0.01 µM was determined as 50%. The inhibition at 0.1 µM on mu receptor (setting [4]) amounted to 88%.

Turning to `CCCOC(=O)CCCC(=O)N[C@@H](CC1CCCCC1)CN1CC[C@@](C)(c2cccc(O)c2)[C@@H](C)C1` [Example 54], the ED50 was determined as 27 mg/kg on opioid receptor and 0.0015 mg/kg in experiment [1]. Further, the “Ratio (ratio of AD50 to ED50)” value in experiment [2] was determined as 18000. In addition, the inhibition at 0.01 µM at mu receptor (setting [3]) turned out to be 81%. On mu receptor (setting [4]), the inhibition at 0.1 µM worked out at 96%. The inhibition constant (Ki) at mu receptor ([3H]naloxone 0.5 nM) came out at 5.07 nM.

On to `CC(C)COC(=O)CCCC(=O)N[C@@H](CC1CCCCC1)CN1CC[C@](C)(c2cccc(O)c2)[C@H](C)C1` [Example 55], for which the ED50 on opioid receptor was more than 40 mg/kg; in experiment [1] (0.5 h, read-out: ED50) it was 0.05 mg/kg. Moreover, the “Ratio (ratio of AD50 to ED50)” value in experiment [2] was more than 800. In addition, the inhibition at 0.01 µM at mu receptor (setting [5]) amounted to 40%. In addition, the inhibition at 0.1 µM at mu receptor (setting [6]) is 86%.

As to `CC(C)COC(=O)CCCC(=O)N[C@@H](CC1CCCCC1)CN1CC[C@@](C)(c2cccc(O)c2)[C@@H](C)C1` [Example 56], the ED50 was more than 40 mg/kg at opioid receptor and 0.002 mg/kg in experiment [1] (0.5 h, read-out: ED50). The “Ratio (ratio of AD50 to ED50)” value in experiment [2] was determined as 20000. Moreover, the inhibition at 0.01 µM on mu receptor (setting [5]) amounted to 61%. In addition, the inhibition at 0.1 µM at mu receptor (setting [6]) was determined as 92%.

On to `CCCCCCCOC(=O)CCCC(=O)N[C@@H](CC1CCCCC1)CN1CC[C@@](C)(c2cccc(O)c2)[C@@H](C)C1` [Example 57], for which the ED50 at opioid receptor was more than 40 mg/kg; in experiment [1] (0.5 h, read-out: ED50), 0.068 mg/kg. Besides, the “Ratio (ratio of AD50 to ED50)” value in experiment [2] is more than 588. Besides, the inhibition at 0.01 µM at mu receptor (setting [5]) was determined as 0%. Besides, the inhibition at 0.1 µM at mu receptor (setting [6]) is 9%.

`CC(C)COC(=O)CCCC(=O)N[C@H](CC1CCCCC1)CN1CC[C@](C)(c2cccc(O)c2)[C@H](C)C1` [Example 58]: the ED50 was more than 40 mg/kg on opioid receptor and 0.17 mg/kg in experiment [1] (0.5 h, read-out: ED50). Besides, in experiment [2], the “Ratio (ratio of AD50 to ED50)” value is on record as more than 235. Further, the inhibition at 0.01 µM on mu receptor (setting [5]) is 0%. The inhibition at 0.1 µM at mu receptor (setting [6]) was 38%.

Take `CC(C)COC(=O)CCCC(=O)N[C@H](CC1CCCCC1)CN1CC[C@@](C)(c2cccc(O)c2)[C@@H](C)C1` [Example 59]: the ED50 on opioid receptor was more than 40 mg/kg; in experiment [1] (0.5 h, read-out: ED50), 0.059 mg/kg. Further, in experiment [2], the “Ratio (ratio of AD50 to ED50)” value is listed as more than 678. The inhibition at 0.01 µM at mu receptor (setting [5]) came to 6%. In addition, the inhibition at 0.1 µM at mu receptor (setting [6]) is 53%.

For `C[C@@H]1CN(C[C@H](CC2CCCCC2)NC(=O)CCCC(=O)OCC(N)=O)CC[C@]1(C)c1cccc(O)c1` [Example 60], the figures for the ED50 (on opioid receptor; in experiment [1]) were more than 10 mg/kg and 0.035 mg/kg, respectively. In experiment [2], the “Ratio (ratio of AD50 to ED50)” value is more than 285. Besides, the inhibition at 0.01 µM at mu receptor (setting [3]) came out at 76%. The inhibition at 0.1 µM on mu receptor (setting [4]) came to 95%. The Ki at mu receptor ([3H]naloxone 0.5 nM) was found to be 5.96 nM.

For `C[C@H]1CN(C[C@H](CC2CCCCC2)NC(=O)CCCC(=O)OCC(N)=O)CC[C@@]1(C)c1cccc(O)c1` [Example 61], the ED50 amounted to 22 mg/kg on opioid receptor and 0.13 mg/kg in experiment [1]. Further, in experiment [2], the “Ratio (ratio of AD50 to ED50)” value worked out at 169. Moreover, the inhibition at 0.01 µM on mu receptor (setting [3]) stood at 88%. In addition, on mu receptor (setting [4]), the inhibition at 0.1 µM was found to be 97%. In addition, the inhibitory constant (Ki) at mu receptor ([3H]naloxone 0.5 nM) stood at 2.86 nM.

As to `CNC(=O)COC(=O)CCCC(=O)N[C@@H](CC1CCCCC1)CN1CC[C@](C)(c2cccc(O)c2)[C@H](C)C1` [Example 62], the ED50 at opioid receptor is more than 40 mg/kg; in experiment [1], 0.03 mg/kg. Also, in experiment [2], the “Ratio (ratio of AD50 to ED50)” value is more than 1333. For the same molecule, at mu receptor (setting [3]), the inhibition at 0.01 µM was determined as 70%. For the same molecule, at mu receptor (setting [4]), the inhibition at 0.1 µM was found to be 96%.

As for `CNC(=O)COC(=O)CCCC(=O)N[C@@H](CC1CCCCC1)CN1CC[C@@](C)(c2cccc(O)c2)[C@@H](C)C1` [Example 63], the results for the ED50 (on opioid receptor; in experiment [1]) were 12 mg/kg and 0.003 mg/kg, respectively. Further, the “Ratio (ratio of AD50 to ED50)” value in experiment [2] is given as 4000. Besides, the inhibition at 0.01 µM at mu receptor (setting [3]) is 87%. For the same molecule, the inhibition at 0.1 µM on mu receptor (setting [4]) worked out at 99%. The Ki at mu receptor ([3H]naloxone 0.5 nM) turned out to be 2.13 nM.

For the molecule `CCNC(=O)COC(=O)CCCC(=O)N[C@@H](CC1CCCCC1)CN1CC[C@](C)(c2cccc(O)c2)[C@H](C)C1` [Example 65], the results for the ED50 (at opioid receptor; in experiment [1]) were more than 40 mg/kg and 0.02 mg/kg, respectively. Besides, the “Ratio (ratio of AD50 to ED50)” value in experiment [2] is reported as more than 2000. The inhibition at 0.01 µM at mu receptor (setting [3]) is 67%. Further, the inhibition at 0.1 µM on mu receptor (setting [4]) was found to be 93%.

Turning to `CCNC(=O)COC(=O)CCCC(=O)N[C@@H](CC1CCCCC1)CN1CC[C@@](C)(c2cccc(O)c2)[C@@H](C)C1` [Example 66], the ED50 amounted to 12.2 mg/kg at opioid receptor and 0.005 mg/kg in experiment [1]. Also, the “Ratio (ratio of AD50 to ED50)” value in experiment [2] came to 2440. In addition, the inhibition at 0.01 µM on mu receptor (setting [3]) is 81%. In addition, the inhibition at 0.1 µM at mu receptor (setting [4]) came out at 94%. Moreover, at mu receptor ([3H]naloxone 0.5 nM), the Ki is 1.84 nM.

For the molecule `COC1CCC(OC(=O)CCCC(=O)N[C@@H](CC2CCCCC2)CN2CC[C@@](C)(c3cccc(O)c3)[C@@H](C)C2)CC1` (stereo partly shown) [Example 68], the ED50 on opioid receptor turned out to be 18.8 mg/kg; in experiment [1] (0.5 h, read-out: ED50), 0.29 mg/kg. Besides, the “Ratio (ratio of AD50 to ED50)” value in experiment [2] stood at 65. In addition, the inhibition at 0.01 µM on mu receptor (setting [5]) amounted to 68%. Moreover, the inhibition at 0.1 µM at mu receptor (setting [6]) came out at 95%.

Consider `COC1CCC(OC(=O)CCCC(=O)N[C@@H](CC2CCCCC2)CN2CC[C@](C)(c3cccc(O)c3)[C@H](C)C2)CC1` (stereo partly shown) [Example 69], for which the ED50 at opioid receptor was more than 40 mg/kg; in experiment [1] (0.5 h, read-out: ED50), 0.03 mg/kg. Further, in experiment [2], the “Ratio (ratio of AD50 to ED50)” value is listed as more than 1333. Also, on mu receptor (setting [5]), the inhibition at 0.01 µM stood at 37%. Besides, at mu receptor (setting [6]), the inhibition at 0.1 µM came out at 83%.

`Cc1oc(=O)oc1COC(=O)CCCC(=O)N[C@@H](CC1CCCCC1)CN1CC[C@@](C)(c2cccc(O)c2)[C@@H](C)C1` [Example 70]: the ED50 on opioid receptor amounted to 18.2 mg/kg; in experiment [1], 0.017 mg/kg. In experiment [2], the “Ratio (ratio of AD50 to ED50)” value stood at 1070. For the same molecule, the inhibition at 0.01 µM at mu receptor (setting [3]) was determined as 89%. In addition, the inhibition at 0.1 µM at mu receptor (setting [4]) worked out at 99%. The inhibition constant Ki on mu receptor ([3H]naloxone 0.5 nM) stood at 1.78 nM.
